Assay results as given in patent EP4722205A1, “HETEROCYCLIC COMPOUND AND NOXIOUS ARTHROPOD-CONTROLLING COMPOSITION CONTAINING SAME” (Sumitomo Chemical Company, Limited, priority 2023, dated 2024).

What was measured:
Type in all cases: in vivo
[1] = system: cotton aphids (Aphis gossypii); test: Test Method 1: foliar spray on cucumber seedling infested with cotton aphids (Formulation example 1); conditions: 120 h, spray 10 mL/seedling, examined after 5 days, 25°C, read-out: controlling value
[2] = system: common house mosquitos (Culex pipiens pallens); test: Test Method 12: mosquito larvae released into diluted solution; conditions: 24 h, last instar larvae, after 1 day, 25°C, read-out: controlling value
Description: (§1) The following tests in the test examples below were conducted at 25°C.
Into the diluted solution, 30 common house mosquitos (Culex pipiens pallens) at the last instar larval stage are released, and after 1 day, the state of the house mosquito larvae is examined, and the mortality of insects is calculated by the following equation. [formula]

[3] = system: diamondback moth (Plutella xylostella); test: Test Method 10: sprayed cabbage seedling, third instar diamondback moth (Formulation example 5); conditions: 144 h, third instar larvae, after 6 days, 25°C, read-out: controlling value
Description: as §1
(§2) Cabbage (Brassicae oleracea) seedling (on the developmental stage of the third to fourth true leaf) is planted in a cup, and the diluted solutions are sprayed into the seedling at a ratio of 20 mL/seedling. Thereafter, ten (10) diamondback moth (Plutella xylostella) at the third instar larval stage are released onto the seedling. After 6 days, the number of the surviving insects is counted, and the mortality of insects is calculated by the following equation. [formula]

[4] = system: cotton aphids (Aphis gossypii); test: Test Method 11: foliar spray on cucumber seedling infested with cotton aphids (Formulation example 5); conditions: 120 h, spray 10 mL/seedling, examined after 5 days, 25°C, read-out: controlling value
[5] = system: diamondback moth (Plutella xylostella); test: Test Method 4: sprayed cabbage leaves fed to second instar diamondback moth; conditions: 120 h, second instar larvae, after 5 days, 25°C, read-out: mortality of insects
Description: (§3) Next, an efficacy of the present compound on controlling harmful arthropods is shown by Test examples. The following tests in the test examples below were conducted at 25°C.
Test compounds are made to a formulation according to a similar method to that described in the Formulation example 1, and thereto is added water containing 0.03 v/v% of Shindain (registered trademark) to prepare a diluted solution containing a prescribed concentration of the test compound.
(§4) Cabbage (Brassicae oleracea) seedling (on the developmental stage of the second to third true leaf) is planted in a cup, and the diluted solutions are sprayed into the seedling at a ratio of 20 mL/seedling. Thereafter, the stem and leaf thereof are cut out and then is installed into a cup that is covered with filter paper on the bed of the cup. Five (5) diamondback moth (Plutella xylostella) at the second instar larval stage are released into the cup. After 5 days, the number of the surviving insects is counted, and the mortality of insects is calculated by the following equation. [formula]

[6] = system: Western corn rootworms (Diabrotica virgifera virgifera); test: Test Method 5: corn seedling immersion, Western corn rootworm; conditions: 120 h, read-out: mortality of insects
Description: as §3
Each 1 mg of the test compounds is dissolved into 50 µL of a mixed solution of polyoxyethylene sorbitan monolaurate and acetone (polyoxyethylene sorbitan monolaurate: acetone = 5 : 95 (v/v ratio)). Thereto is added water containing 0.03% by volume of Shindain (registered trademark) to prepare a diluted solution containing a prescribed concentration of the test compound.
A young entire seedling of Corns (Zea mays) is immersed into the diluted solution for 30 seconds. Thereafter, each two grains of the seedlings are installed in a plastic petri dish ([…]), and 10 Western corn rootworms (Diabrotica virgifera virgifera) at the second instar larval stage are released into the dish. After 5 days, the number of the dead insects is counted, and the mortality of insects is calculated by the following equation. Mortality(%) = (Numberofdeadinsects/10) × 100 [formula]

[7] = system: cotton worm (Spodoptera litura); test: Test Method 9: sprayed cabbage seedling, third instar cotton worm (Formulation example 5); conditions: 144 h, third instar larvae, after 6 days, 25°C, read-out: controlling value
Description: as §1
as §2, with “cotton worm (Spodoptera litura)” for “diamondback moth (Plutella xylostella)”

[8] = system: housefly (Musca domestica); test: Test Method 8: coated container contact test, housefly; conditions: 24 h, 40 mg/m^2, female adults, after one (1) day, 25°C, read-out: mortality of insects
Description: as §3
(§5) Acetone solution in which test compounds are adjusted to 800 ppm are prepared, and the solution is poured into a container having an internal volume of 20 mL, and the solution is coated uniformly on an inner face of the container such that the test compound is made to be 40 mg/m^2, and the container is then dried.
Five (5) housefly (Musca domestica) female adults are placed in the container, and the cup is covered with the lid. After the prescribed timing is passed, the state of the housefly is examined, and the mortality of insects is calculated by the following equation. [formula]

[9] = system: cotton worm (Spodoptera litura); test: Test Method 3: sprayed cabbage leaves fed to second instar cotton worm; conditions: 120 h, second instar larvae, after 5 days, 25°C, read-out: mortality of insects
Description: as §1
as §4, with “cotton worm (Spodoptera litura)” for “diamondback moth (Plutella xylostella)”

[10] = system: German cockroach (Blattella germanica); test: Test Method 6: coated container contact test, German cockroach; conditions: 72 h, read-out: mortality of insects
Description: as §3
as §5, with “50” for “20”
Five (5) German cockroach (Blattella germanica) male adults are placed in the container, and the cup is covered with the lid. After the prescribed timing is passed, the state of the German cockroach is examined, and the mortality of insects is calculated by the following equation. [formula]

SMILES | mortality at 500 ppm [1] | mortality at 3.5 ppm [2] | mortality at 50 ppm [3] | mortality at 200 ppm [3] | mortality at 50 ppm [4] | mortality at 200 ppm [4] | mortality at 500 ppm [5] | mortality at 200 ppm [6] | mortality at 50 ppm [7] | mortality at 200 ppm [7] | mortality at 40 mg/m2 [8] | mortality at 500 ppm [9] | mortality at 40 mg/m2 [10]
CCS(=O)(=O)c1c(C(=O)N(C)c2nc3ccc(C(F)(F)F)cc3s2)nc2ccc(I)cn12 [compound 26] | ≥ 90% | ≥ 90% | ≥ 80% | ≥ 80% | ≥ 90% | ≥ 90% | ≥ 80% | ≥ 80% | – | – | – | – | –
CCS(=O)(=O)c1c(C(=O)N(C)c2nc3ccc(F)c(F)c3s2)nc2ccc(I)cn12 [compound 33] | ≥ 90% | ≥ 90% | ≥ 80% | ≥ 80% | ≥ 90% | ≥ 90% | ≥ 80% | ≥ 80% | ≥ 80% | ≥ 80% | ≥ 80% | ≥ 80% | –
CCS(=O)(=O)c1c(C(=O)N(C)c2nc3cc(F)c(F)cc3s2)nc2ccc(I)cn12 [compound 34] | ≥ 90% | ≥ 90% | ≥ 80% | ≥ 80% | ≥ 90% | ≥ 90% | ≥ 80% | ≥ 80% | ≥ 80% | ≥ 80% | ≥ 80% | ≥ 80% | –
CCS(=O)(=O)c1c(C(=O)N(C)c2nc3cc(F)c(F)c(F)c3s2)nc2ccc(Br)cn12 [compound 44] | ≥ 90% | ≥ 90% | ≥ 80% | ≥ 80% | – | ≥ 90% | ≥ 80% | – | ≥ 80% | ≥ 80% | ≥ 80% | ≥ 80% | ≥ 80%
CCS(=O)(=O)c1c(C(=O)N(C)c2nc3c(F)c(F)c(F)c(F)c3s2)nc2ccc(I)cn12 [compound 77] | – | – | – | – | – | – | ≥ 80% | ≥ 80% | ≥ 80% | ≥ 80% | ≥ 80% | ≥ 80% | –
CCS(=O)(=O)c1c(C(=O)N(C)c2nc3cc(Cl)c(F)cc3s2)nc2ccc(I)cn12 [compound 101] | – | – | ≥ 80% | ≥ 80% | – | – | ≥ 80% | ≥ 80% | ≥ 80% | ≥ 80% | – | – | –
CCS(=O)(=O)c1ccc(NC)nc1C(=O)N(C)c1nc2cc(F)c(F)c(F)c2s1 [compound 138] | ≥ 90% | ≥ 90% | ≥ 80% | ≥ 80% | ≥ 90% | ≥ 90% | ≥ 80% | – | ≥ 80% | ≥ 80% | ≥ 80% | ≥ 80% | –
CCS(=O)(=O)c1ccc(NC2CC2)nc1C(=O)N(C)c1nc2cc(F)c(F)c(F)c2s1 [compound 139] | – | ≥ 90% | ≥ 80% | ≥ 80% | ≥ 90% | ≥ 90% | ≥ 80% | – | ≥ 80% | ≥ 80% | ≥ 80% | ≥ 80% | –
